Test results as given in ChEMBL document CHEMBL3885861, “Open TG-GATES”.

Species on record: Rattus norvegicus
Assay: Open TG-GATES - Regimen: Single
Type: toxicity, organism-based, Sprague-Dawley
Set-up: regimen Single, gender Male, age 6 weeks
Conditions: in vivo, po, 100 mg/kg, route gavage, dose level High; for APTT / Bas / Eos / Fbg / Hb / Ht / Lym / MCH / MCHC / MCV / Mono / Neu / PT / Plat / RBC / Ret / WBC: tissue Blood; for KIDNEY_L / KIDNEY_R / KIDNEY_TOTAL: tissue Kidney; for LIVER: tissue Liver; for A/G / ALP / ALT / AST / BUN / CRE / Ca / Cl / DBIL / GLC / IP / K / LDH / Na / PL / RALB / TBIL / TC / TG / TP / gamma-GTP: tissue Plasma

In the case of `CCN(CC)N=O` [N-NITROSODIETHYLAMINE], the TERMINAL_BW (3 h) was 221.2 g, the APTT (3 h) was 19.4 s and the Bas (3 h) was 0%. For the same compound, the Eos (3 h) was 1%, the Fbg (3 h) was 208.2 mg/dL and the Hb (3 h) was 13.2 g/dL. For the same compound, the Ht (3 h) was 38.5%, the Lym (3 h) was 77.2% and the MCH (3 h) was 21.5 pg. The MCHC (3 h) was 34.2%, the MCV (3 h) was 62.7 fL and the Mono (3 h) was 1.4%. For the same compound, the Neu (3 h) was 19.2%, the PT (3 h) was 12 s and the Plat (3 h) was 113.8 x10_4/uL. It also gave an RBC (3 h) of 613.8 x10_4/ul, a Ret (3 h) of 7.2% and a WBC (3 h) of 60.2 x10_2/uL. For the same compound, the KIDNEY_L (3 h) was 1 g, the KIDNEY_R (3 h) was 1 g and the KIDNEY_TOTAL (3 h) was 2 g. The LIVER (3 h) was 9 g, the A/G (3 h) was 1.7 and the ALP (3 h) was 781 IU/L. For the same compound, the ALT (3 h) was 39.6 IU/L, the AST (3 h) was 73.6 IU/L and the BUN (3 h) was 9.8 mg/dL. It also gave a CRE (3 h) of 0.4 mg/dL, a Ca (3 h) of 10.2 mg/dL and a Cl (3 h) of 102.2 meq/L. The DBIL (3 h) was 0.056 mg/dL, the GLC (3 h) was 191 mg/dL and the IP (3 h) was 8.5 mg/dL. For the same compound, the K (3 h) was 3.5 meq/L, the LDH (3 h) was 162 IU/L and the Na (3 h) was 140.8 meq/L. For the same compound, the PL (3 h) was 124.8 mg/dL, the RALB (3 h) was 3.4 g/dL and the TBIL (3 h) was 0.1 mg/dL. The TC (3 h) was 85 mg/dL, the TG (3 h) was 24.2 mg/dL and the TP (3 h) was 5.5 g/dL. It also gave a gamma-GTP (3 h) of 1.2 IU/L, a TERMINAL_BW (6 h) of 218 g and an APTT (6 h) of 18.8 s. The Bas (6 h) was 0.4%, the Eos (6 h) was 0.8% and the Fbg (6 h) was 214.6 mg/dL. The Hb (6 h) was 13.2 g/dL, the Ht (6 h) was 38.2% and the Lym (6 h) was 80.2%. The MCH (6 h) was 21.2 pg, the MCHC (6 h) was 34.6% and the MCV (6 h) was 61.4 fL. The Mono (6 h) was 2%, the Neu (6 h) was 16% and the PT (6 h) was 12.7 s. For the same compound, the Plat (6 h) was 142.5 x10_4/uL, the RBC (6 h) was 623 x10_4/ul and the Ret (6 h) was 6.6%. The WBC (6 h) was 83.6 x10_2/uL, the KIDNEY_L (6 h) was 1 g and the KIDNEY_R (6 h) was 1 g. For the same compound, the KIDNEY_TOTAL (6 h) was 2 g, the LIVER (6 h) was 9.8 g and the A/G (6 h) was 1.6. The ALP (6 h) was 784.2 IU/L, the ALT (6 h) was 38.2 IU/L and the AST (6 h) was 73.4 IU/L. For the same compound, the BUN (6 h) was 12 mg/dL, the CRE (6 h) was 0.4 mg/dL and the Ca (6 h) was 10.2 mg/dL. For the same compound, the Cl (6 h) was 103.4 meq/L, the DBIL (6 h) was 0.068 mg/dL and the GLC (6 h) was 192.8 mg/dL. The IP (6 h) was 8.3 mg/dL, the K (6 h) was 3.5 meq/L and the LDH (6 h) was 207.8 IU/L. The Na (6 h) was 140.4 meq/L, the PL (6 h) was 103.6 mg/dL and the RALB (6 h) was 3.4 g/dL. For the same compound, the TBIL (6 h) was 0.1 mg/dL, the TC (6 h) was 68.8 mg/dL and the TG (6 h) was 24 mg/dL. It also gave a TP (6 h) of 5.5 g/dL, a gamma-GTP (6 h) of 1.4 IU/L and a TERMINAL_BW (9 h) of 225.6 g. For the same compound, the APTT (9 h) was 19.6 s, the Bas (9 h) was 0.6% and the Eos (9 h) was 1%. For the same compound, the Fbg (9 h) was 226.6 mg/dL, the Hb (9 h) was 13.7 g/dL and the Ht (9 h) was 39.4%. The Lym (9 h) was 71.6%, the MCH (9 h) was 21.4 pg and the MCHC (9 h) was 34.9%. For the same compound, the MCV (9 h) was 61.4 fL, the Mono (9 h) was 5% and the Neu (9 h) was 20.4%. The PT (9 h) was 13.8 s, the Plat (9 h) was 122.7 x10_4/uL and the RBC (9 h) was 642 x10_4/ul. It also gave a Ret (9 h) of 6.9%, a WBC (9 h) of 78.5 x10_2/uL and a KIDNEY_L (9 h) of 1 g. For the same compound, the KIDNEY_R (9 h) was 1 g, the KIDNEY_TOTAL (9 h) was 2 g and the LIVER (9 h) was 9.7 g. For the same compound, the A/G (9 h) was 1.6, the ALP (9 h) was 795 IU/L and the ALT (9 h) was 35.6 IU/L. The AST (9 h) was 87.8 IU/L, the BUN (9 h) was 14.2 mg/dL and the CRE (9 h) was 0.4 mg/dL. For the same compound, the Ca (9 h) was 10.3 mg/dL, the Cl (9 h) was 103.2 meq/L and the DBIL (9 h) was 0.064 mg/dL. For the same compound, the GLC (9 h) was 194.4 mg/dL, the IP (9 h) was 8.2 mg/dL and the K (9 h) was 3.7 meq/L. It also gave an LDH (9 h) of 267.2 IU/L, a Na (9 h) of 141.6 meq/L and a PL (9 h) of 110.4 mg/dL. The RALB (9 h) was 3.4 g/dL, the TBIL (9 h) was 0.1 mg/dL and the TC (9 h) was 73.4 mg/dL. It also gave a TG (9 h) of 28.2 mg/dL, a TP (9 h) of 5.5 g/dL and a gamma-GTP (9 h) of 1.6 IU/L. The TERMINAL_BW (24 h) was 216.1 g, the APTT (24 h) was 19 s and the Bas (24 h) was 0.8%. For the same compound, the Eos (24 h) was 1.2%, the Fbg (24 h) was 225.6 mg/dL and the Hb (24 h) was 15.1 g/dL. The Ht (24 h) was 44.4%, the Lym (24 h) was 72.4% and the MCH (24 h) was 21 pg. For the same compound, the MCHC (24 h) was 34%, the MCV (24 h) was 61.7 fL and the Mono (24 h) was 6%. For the same compound, the Neu (24 h) was 17.8%, the PT (24 h) was 17 s and the Plat (24 h) was 130.3 x10_4/uL. For the same compound, the RBC (24 h) was 720.2 x10_4/ul, the Ret (24 h) was 6.5% and the WBC (24 h) was 83.1 x10_2/uL. For the same compound, the KIDNEY_L (24 h) was 1 g, the KIDNEY_R (24 h) was 1 g and the KIDNEY_TOTAL (24 h) was 2 g. It also gave an LIVER (24 h) of 8.2 g, an A/G (24 h) of 1.7 and an ALP (24 h) of 955.6 IU/L. For the same compound, the ALT (24 h) was 56.2 IU/L, the AST (24 h) was 160 IU/L and the BUN (24 h) was 13.4 mg/dL. For the same compound, the CRE (24 h) was 0.4 mg/dL, the Ca (24 h) was 10.4 mg/dL and the Cl (24 h) was 104.2 meq/L. The DBIL (24 h) was 0.1 mg/dL, the GLC (24 h) was 179.6 mg/dL and the IP (24 h) was 8.4 mg/dL. For the same compound, the K (24 h) was 4.1 meq/L, the LDH (24 h) was 348.8 IU/L and the Na (24 h) was 140.6 meq/L. The PL (24 h) was 112.2 mg/dL, the RALB (24 h) was 3.3 g/dL and the TBIL (24 h) was 0.2 mg/dL. It also gave a TC (24 h) of 65.2 mg/dL, a TG (24 h) of 25.6 mg/dL and a TP (24 h) of 5.3 g/dL. It also gave a gamma-GTP (24 h) of 1.8 IU/L.
